Laboratory results reported in BindingDB's records for patent US20240124479 (Shanghai Meiyue Biotech Development Co., 2024).
pIC50: −log10 of the molar value.

Molecular target: T1, Pantetheinase (Homo sapiens, UniProt O95497)
T1 sequence (O95497 whole entry): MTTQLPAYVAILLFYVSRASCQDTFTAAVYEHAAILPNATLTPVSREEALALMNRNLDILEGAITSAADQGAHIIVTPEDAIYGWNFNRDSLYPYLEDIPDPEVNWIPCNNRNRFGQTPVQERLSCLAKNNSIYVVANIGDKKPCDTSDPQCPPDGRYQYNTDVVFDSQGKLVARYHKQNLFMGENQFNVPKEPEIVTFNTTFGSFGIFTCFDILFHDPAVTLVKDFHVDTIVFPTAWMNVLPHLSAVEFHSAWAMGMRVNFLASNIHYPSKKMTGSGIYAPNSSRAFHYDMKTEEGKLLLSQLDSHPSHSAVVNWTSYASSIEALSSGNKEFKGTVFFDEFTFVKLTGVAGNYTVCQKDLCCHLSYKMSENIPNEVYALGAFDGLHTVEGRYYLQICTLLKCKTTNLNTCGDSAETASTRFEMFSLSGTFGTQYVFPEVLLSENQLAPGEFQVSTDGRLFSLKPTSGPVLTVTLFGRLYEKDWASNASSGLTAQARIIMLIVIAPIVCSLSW
Assay: Vanin-1 Recombinant Enzyme Activity Inhibition Assay
Description: A certain mass of the compound was weighed precisely, and prepared with DMSO and reaction buffer (50 mM Tris base, 50 mM KCl, 1.6 mM cysteamine, 0.005% Brij 35, pH 8.0, prepared when using) to a maximum concentration of 10000 nM, then diluted in a 4-fold gradient, and prepared into 10 compound working solutions with different concentrations;for the activity inhibition reaction of recombinant human Vanin-1 (Biorab, JN0618), 2.5 μL of compound working solution and 5 μL of recombinant human Vanin-1 protein were first mixed.

Row | SMILES | pIC50
1 | O=C(c1cnc(NCc2ccccc2)nc1)N1CCC2(CCOCC2)C1 [US20240124479, Compound 5] | 7.19
2 | CC(Nc1ncc(C(=O)N2CCC3(CCOCC3)C2)cn1)c1ccccc1 (stereo not given) [US20240124479, Compound 6] | 8.22
3 | O=C(c1cnc(NCc2ccc(F)cc2F)nc1)N1CCC2(CCOCC2)C1 [US20240124479, Compound 12] | 7.77
4 | CC(Nc1ncc(C(=O)N2CCC3(CCOCC3)C2)cn1)c1ccc(OC(F)F)cc1Cl (stereo not given) [US20240124479, Compound 27] | 9.40
5 | C[C@@H](Nc1ncc(C(=O)N2CCC3(CCOCC3)C2)cn1)c1ccc(C(F)(F)F)cc1Cl [US20240124479, Compound 28] | 9.10
6 | C[C@H](Nc1ncc(C(=O)N2CCC3(CCOCC3)C2)cn1)c1ccc(C(F)(F)F)cc1Cl [US20240124479, Compound 29] | 9.40
7 | CC(=O)N(C)[C@H]1CCN(C(=O)c2cnc(NC(C)c3c(F)cccc3C(F)(F)F)nc2)C1 (stereo not given in full) [US20240124479, Compound 38] | 10.00
8 | CC(=O)N(C)[C@H]1CCN(C(=O)c2cnc(NC(C)c3ccc(F)cc3Cl)nc2)C1 (stereo not given in full) [US20240124479, Compound 39] | 8.74
9 | CC(=O)N(C)[C@H]1CCN(C(=O)c2cnc(N[C@H](C)c3ccc(C(F)(F)F)cc3F)nc2)C1 [US20240124479, Compound 41-P2] | 9.52
10 | CC(=O)N(C)[C@H]1CCN(C(=O)c2cnc(NC(C)c3ccc(C(F)(F)F)cc3F)nc2)C1 (stereo not given in full) [US20240124479, Compound 41] | 9.70
